From patent US20090163515A1, “Compounds Which Bind to the Active Site of Protein Kinase Enzymes” (Biofocus Discovery Ltd., priority 2003, published 2009)

Test system: ROK
Assay: ROK activity assay
Type: biochemical
Parameters: key: +: active; ++: more active; +++: very active
Details: assays conducted at 1-100 μM

Row | Structure (SMILES) | ROK activity
1 | NC(=O)c1cccc(-c2cncc(NCc3cccc(O)c3)c2)c1 [3-[5-(3-Hydroxy-benzylamino)-pyridin-3-yl]-benzamide] | +++
2 | FC(F)(F)Oc1ccc(-c2cnc(NCCc3ccncc3)cn2)cc1 [(2-Pyridin-4-yl-ethyl)-[5-(4-trifluoromethoxy-phenyl)-pyrazin-2-yl]-amine] | ++
3 | Oc1cccc(CNc2cncc(-c3ccc4[nH]ccc4c3)c2)c1 [3-{[5-(1H-Indol-5-yl)-pyridin-3-ylamino]-methyl}-phenol] | +
4 | c1cc(-c2cncc(NCC3CCCN3)c2)ccn1 (stereo not drawn) [[3,4′]Bipyridinyl-5-yl-pyrrolidin-2-ylmethyl-amine] | +
5 | OCc1ccc(-c2cncc(NCc3cccc(O)c3)c2)cc1 [3-{[5-(4-Hydroxymethyl-phenyl)-pyridin-3-ylamino]-methyl}-phenol] | +
6 | O=C(NCCO)c1cccc(-c2cncc(NCc3cccc(O)c3)c2)c1 [3-[5-(3-Hydroxy-benzylamino)-pyridin-3-yl]-N-(2-hydroxy-ethyl)-benzamide] | ++
7 | NC(=O)c1cccc(-c2cncc(NCc3ccc(O)cc3)c2)c1 [3-[5-(4-Hydroxy-benzylamino)-pyridin-3-yl]-benzamide] | ++
8 | CN(Cc1cccc(O)c1)c1cncc(-c2ccc(O)cc2)c1 [4-{5-[(3-hydroxy-benzyl)-methyl-amino]-pyridin-3-yl}-phenol] | +
9 | Oc1cccc(CNc2cncc(-c3cccc4ncccc34)c2)c1 [3-[(5-Quinolin-5-yl-pyridin-3-ylamino)-methyl]-phenol] | +++
10 | COc1cc(-c2cnc(NCCc3ccncc3)cn2)cc(OC)c1OC [(2-Pyridin-4-yl-ethyl)-[5-(3,4,5-trimethoxy-phenyl)-pyrazin-2-yl]-amine] | ++
11 | FC(F)(F)Oc1cccc(CNc2cncc(-c3ccncc3)c2)c1 [[3,4′]Bipyridinyl-5-yl-(3-trifluoromethoxy-benzyl)-amine] | ++
12 | CN(C)CCNC(=O)c1cccc(-c2cncc(Nc3ccc4ccccc4c3)c2)c1 [N-(2-Dimethylamino-ethyl)-3-[5-(naphthalen-2-ylamino)-pyridin-3-yl]-benzamide] | +
13 | CC(=O)Nc1cccc(-c2cncc(NCc3cccc(O)c3)c2)c1 [N-{3-[5-(3-Hydroxy-benzylamino)-pyridin-3-yl]-phenyl}-acetamide] | +
14 | c1cc(CCNc2cnc(-c3ccc4c(c3)OCO4)cn2)ccn1 [(5-Benzo[1,3]dioxol-5-yl-pyrazin-2-yl)-(2-pyridin-4-yl-ethyl)-amine] | ++
15 | Oc1cccc(CNc2cncc(-c3ccccc3)c2)c1 [3-[(5-Phenyl-pyridin-3-ylamino)-methyl]-phenol] | +
16 | c1cc(-c2cncc(NCC3CCCCC3)c2)ccn1 [[3,4′]Bipyridinyl-5-yl-cyclohexylmethyl-amine] | ++
17 | Oc1cccc(Nc2cncc(-c3ccncc3)c2)c1 [3-([3,4′]Bipyridinyl-5-ylamino)-phenol] | ++
18 | Clc1cccc(Nc2cncc(-c3ccncc3)c2)c1 [[3,4′]Bipyridinyl-5-yl-(3-chloro-phenyl)-amine] | ++
19 | Oc1ccc(-c2cnc(NCc3cccc(Cl)c3)cn2)cc1 [4-[5-(3-Chloro-benzylamino)-pyrazin-2-yl]-phenol] | +
20 | COc1ccc(Nc2cncc(-c3cccc(C(N)=O)c3)c2)cc1 [3-[5-(4-Methoxy-phenylamino)-pyridin-3-yl]-benzamide] | +

Row | Structure (SMILES) | ROK activity
21 | c1ccc2oc(-c3cnc(NCCc4ccncc4)cn3)cc2c1 [(5-Benzofuran-2-yl-pyrazin-2-yl)-(2-pyridin-4-yl-ethyl)-amine] | ++
22 | NC(=O)c1cccc(-c2cncc(NCc3cc(O)cc(O)c3)c2)c1 [3-[5-(3,5-Dihydroxy-benzylamino)-pyridin-3-yl]-benzamide] | ++
23 | Oc1ccc(-c2cncc(NCc3ccc(Cl)c(Cl)c3)c2)cc1 [4-[5-(3,4-Dichloro-benzylamino)-pyridin-3-yl]-phenol] | +
24 | NC(=O)c1cccc(-c2cncc(NCc3cccc(OC(F)(F)F)c3)c2)c1 [3-[5-(3-Trifluoromethoxy-benzylamino)-pyridin-3-yl]-benzamide] | ++
25 | Oc1cccc(CNc2cncc(-c3ccncc3)c2)c1 [3-([3,4′]Bipyridinyl-5-ylaminomethyl)-phenol] | ++
26 | NC(=O)c1cccc(-c2cncc(NCc3cccnc3)c2)c1 [3-{5-[(Pyridin-3-ylmethyl)-amino]-pyridin-3-yl}-benzamide] | +
27 | Oc1ccc(-c2cncc(NCc3cccc(OC(F)(F)F)c3)c2)cc1 [4-[5-(3-Trifluoromethoxy-benzylamino)-pyridin-3-yl]-phenol] | +
28 | Oc1ccc(-c2cncc(NCC3CCCN3)c2)cc1 (stereo not drawn) [4-{5-[(Pyrrolidin-2-ylmethyl)-amino]-pyridin-3-yl}-phenol] | ++
29 | NC(=O)c1cccc(-c2cncc(NCc3cccc(Cl)c3)c2)c1 [3-[5-(3-Chloro-benzylamino)-pyridin-3-yl]-benzamide] | ++
30 | COc1ccc(CNc2cncc(-c3cccc(C(N)=O)c3)c2)cc1O [3-[5-(3-Hydroxy-4-methoxy-benzylamino)-pyridin-3-yl]-benzamide] | ++
31 | NC(=O)c1cccc(-c2cncc(NCC3CCCN3)c2)c1 (stereo not drawn) [3-{5-[(Pyrrolidin-2-ylmethyl)-amino]-pyridin-3-yl}-benzamide] | +
32 | Oc1cccc(CNc2cncc(-c3ccc4c(c3)OCO4)c2)c1 [3-[(5-Benzo[1,3]dioxol-5-yl-pyridin-3-ylamino)-methyl]-phenol] | ++
33 | c1ccc2sc(-c3cnc(NCCc4ccncc4)cn3)cc2c1 [(5-Benzo[b]thiophen-2-yl-pyrazin-2-yl)-(2-pyridin-4-yl-ethyl)-amine] | ++
34 | Oc1ccc(-c2cncc(NCc3ccc4ccccc4c3)c2)cc1 [4-{5-[(Naphthalen-2-ylmethyl)-amino]-pyridin-3-yl}-phenol] | +
35 | CC(=O)Nc1ccc(-c2cncc(NCc3cccc(O)c3)c2)cc1 [N-{4-[5-(3-Hydroxy-benzylamino)-pyridin-3-yl]-phenyl}-acetamide] | +
36 | COc1ccc(Nc2cncc(-c3cccc(O)c3)c2)cc1 [3-[5-(4-Methoxy-phenylamino)-pyridin-3-yl]-phenol] | ++
37 | c1ccc2ncc(-c3cnc(NCCc4ccncc4)cn3)cc2c1 [(2-Pyridin-4-yl-ethyl)-(5-quinolin-3-yl-pyrazin-2-yl)-amine] | ++
38 | COc1ccc(CNc2cnc(-c3ccncc3)cn2)cc1 [(4-Methoxy-benzyl)-(5-pyridin-4-yl-pyrazin-2-yl)-amine] | +
39 | Oc1cccc(CNc2cncc(-c3cccc(O)c3)c2)c1 [(5-(3′-hydroxy-phenyl)-pyridin-3-yl)-(3-hydroxy-benzyl)-amine] | +
